molecular target: Recombinant human cathepsin S (CatS) (Homo sapiens, UniProt P25774); experiment: Recombinant human cathepsin S (CatS) inhibition assay, fluorogenic substrate Z-Valine-Valine-Arginine-AMC; conditions: not given;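 note: Baculovirus-expressed CatS in pH 5.0 sodium acetate buffer with DTT and NaCl, fluorescence read each minute over 20 min, inhibition derived from rate slope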
Sequence (P25774 115-331): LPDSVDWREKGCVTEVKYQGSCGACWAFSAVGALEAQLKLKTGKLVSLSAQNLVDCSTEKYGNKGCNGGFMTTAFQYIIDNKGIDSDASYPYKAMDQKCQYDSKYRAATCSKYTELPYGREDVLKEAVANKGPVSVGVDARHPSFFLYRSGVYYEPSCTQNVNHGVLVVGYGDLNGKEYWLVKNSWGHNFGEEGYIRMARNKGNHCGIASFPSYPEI

Row | SMILES | IC50 [nM]
1 | CC1C(=O)NCCN1CCCn1nc(-c2ccc(Cl)c(C#Cc3ccc(CNCc4ccc(Cl)cc4)cc3)c2)c2c1CCN(S(C)(=O)=O)C2 (stereo not drawn) [Example 406, 4-{3-[3-(4-Chloro-3-{[4-({[(4-chlorophenyl)methyl]amino}methyl)phenyl]ethynyl}phenyl)-5-(methylsulfonyl)-4,5,6,7-tetrahydro-1H-pyrazolo[4,3-c]pyridin-1-yl]propyl}-3-methylpiperazin-2-one] | 460
2 | CS(=O)(=O)N1CCc2c(c(-c3ccc(Cl)c(C#Cc4ccc(Br)cc4)c3)nn2CCCN2CCOCC2)C1 [Example 18, 3-[3-(4-Bromo-phenylethynyl)-4-chloro-phenyl]-5-methanesulfonyl-1-(3-morpholin-4-yl-propyl)-4,5,6,7-tetrahydro-1H-pyrazolo[4,3-c]pyridine] | 180
3 | CS(=O)(=O)N1CCc2c(c(-c3ccc(Cl)c(CCCO)c3)nn2CCCN2CCOCC2)C1 [Example 302, 3-{2-Chloro-5-[5-(methylsulfonyl)-1-(3-morpholin-4-ylpropyl)-4,5,6,7-tetrahydro-1H-pyrazolo[4,3-c]pyridin-3-yl]phenyl}propan-1-ol] | 11500
4 | CS(=O)(=O)N1CCc2c(c(-c3ccc(Cl)c(CCCNC4CCCC4)c3)nn2CCCN2CCC(N3CCCC3=O)CC2)C1 [Example 108, 1-[1-(3-{3-[4-Chloro-3-(3-cyclopentylamino-propyl)-phenyl]-5-methanesulfonyl-4,5,6,7-tetrahydro-pyrazolo[4,3-c]pyridin-1-yl}-propyl)-piperidin-4-yl]-pyrrolidin-2-one] | 660
5 | COC(=O)C1Cc2cc(C#Cc3cc(-c4nn(CCCN5CCOCC5)c5c4CN(S(C)(=O)=O)CC5)ccc3Cl)ccc2CN1 (stereo not drawn) [Example 205, Methyl 6-({2-chloro-5-[5-(methylsulfonyl)-1-(3-morpholin-4-ylpropyl)-4,5,6,7-tetrahydro-1H-pyrazolo[4,3-c]pyridin-3-yl]phenyl}ethynyl)-1,2,3,4-tetrahydroisoquinoline-3-carboxylate] | 270
6 | CS(=O)(=O)N1CCc2c(c(-c3ccc(Cl)c(CCCc4ccccc4)c3)nn2CCCN2CCOCC2)C1 [Example 63, 3-[4-Chloro-3-(3-phenyl-propyl)-phenyl]-5-methanesulfonyl-1-(3-morpholin-4-yl-propyl)-4,5,6,7-tetrahydro-1H-pyrazolo[4,3-c]pyridine] | 1400
7 | CN(C)CCCCc1cc(-c2nn(CCCN3CCC(N4CCCC4=O)CC3)c3c2CN(S(C)(=O)=O)CC3)ccc1Cl [Example 312, 1-(1-{3-[3-{4-Chloro-3-[4-(dimethylamino)butyl]phenyl}-5-(methylsulfonyl)-4,5,6,7-tetrahydro-1H-pyrazolo[4,3-c]pyridin-1-yl]propyl}piperidin-4-yl)pyrrolidin-2-one] | 5620
8 | NC(=O)N1CCc2c(c(-c3ccc(Cl)c(C#Cc4cccc(CNCc5ccccc5Cl)c4)c3)nn2CCCN2CCSCC2)C1 [Example 513, 3-(4-Chloro-3-{[3-({[(2-chlorophenyl)methyl]amino}methyl)phenyl]ethynyl}phenyl)-1-(3-thiomorpholin-4-ylpropyl)-1,4,6,7-tetrahydro-5H-pyrazolo[4,3-c]pyridine-5-carboxamide] | 230
9 | CC(C)(C)OC(=O)N1CCc2ccc(C#Cc3cc(-c4nn(CCCN5CCOCC5)c5c4CN(S(C)(=O)=O)CC5)ccc3Cl)cc2C1 [Example 370, 1,1-Dimethylethyl 7-({2-chloro-5-[5-(methylsulfonyl)-1-(3-morpholin-4-ylpropyl)-4,5,6,7-tetrahydro-1H-pyrazolo[4,3-c]pyridin-3-yl]phenyl}ethynyl)-3,4-dihydroisoquinoline-2(1H)-carboxylate] | 720
10 | CS(=O)(=O)N1CCc2c(c(-c3ccc(Cl)c(C#Cc4ccc5c(c4)CNCC5)c3)nn2CCCN2CCN(C3CC3)CC2)C1 [Example 415, 7-[(2-Chloro-5-{1-[3-(4-cyclopropylpiperazin-1-yl)propyl]-5-(methylsulfonyl)-4,5,6,7-tetrahydro-1H-pyrazolo[4,3-c]pyridin-3-yl}phenyl)ethynyl]-1,2,3,4-tetrahydroisoquinoline] | 90
11 | CS(=O)(=O)N1CCc2c(c(-c3ccc(Cl)c(C#CCc4ccccc4)c3)nn2CCCN2CCOCC2)C1 [Example 41, 3-[4-Chloro-3-(3-phenyl-prop-1-ynyl)-phenyl]-5-methanesulfonyl-1-(3-morpholin-4-yl-propyl)-4,5,6,7-tetrahydro-1H-pyrazolo[4,3-c]pyridine] | 3950
12 | C[C@H]1COCCN1CCCn1nc(-c2ccc(Cl)c(C#Cc3ccc(Cl)c(CNCC(C)(C)O)c3)c2)c2c1CCN(C(=O)C(N)=O)C2 [Example 561, 2-(3-{4-Chloro-3-[(4-chloro-3-{[(2-hydroxy-2-methylpropyl)amino]methyl}phenyl)ethynyl]phenyl}-1-{3-[(3S)-3-methylmorpholin-4-yl]propyl}-1,4,6,7-tetrahydro-5H-pyrazolo[4,3-c]pyridin-5-yl)-2-oxoacetamide] | 30
13 | CS(=O)(=O)N1CCc2c(c(-c3ccc(Cl)c(/C=C\c4ccccc4)c3)nn2CCCN2CCOCC2)C1 [Example 67, 3-(4-Chloro-3-Z-styryl-phenyl)-5-methanesulfonyl-1-(3-morpholin-4-yl-propyl)-4,5,6,7-tetrahydro-1H-pyrazolo[4,3-c]pyridine] | 3050
14 | CN(Cc1ccccc1)Cc1cccc(CCc2cc(-c3nn(CCCN4CCOCC4)c4c3CN(S(C)(=O)=O)CC4)ccc2Cl)c1 [Example 530, 1-[3-(2-{2-Chloro-5-[5-(methylsulfonyl)-1-(3-morpholin-4-ylpropyl)-4,5,6,7-tetrahydro-1H-pyrazolo[4,3-c]pyridin-3-yl]phenyl}ethyl)phenyl]-N-methyl-N-(phenylmethyl)methanamine] | 1330
15 | CC(=O)Nc1ccc(C#Cc2cc(-c3nn(CCCN4CCOCC4)c4c3CN(S(C)(=O)=O)CC4)ccc2Cl)cc1 [Example 66, N-(4-{2-Chloro-5-[5-methanesulfonyl-1-(3-morpholin-4-yl-propyl)-4,5,6,7-tetrahydro-1H-pyrazolo[4,3-c]pyridin-3-yl]-phenylethynyl}-phenyl)-acetamide] | 250
16 | C[C@H]1COCCN1CCCn1nc(-c2ccc(Cl)c(C#Cc3ccc(Cl)c(COC4CCNC4)c3)c2)c2c1CCN(C(=O)C(N)=O)C2 (stereo partly drawn) [Example 275, (S)-2-[3-[4-Chloro-3-[4-chloro-3-(pyrrolidin-3-yloxymethyl)-phenylethynyl]-phenyl}-1-[3-(3-methyl-morpholin-4-yl)-propyl]-1,4,6,7-tetrahydro-pyrazolo[4,3-c]pyridin-5-yl}-2-oxo-acetamide] | 50
17 | NC(=O)C(=O)N1CCc2c(c(-c3ccc(Cl)c(C#Cc4ccc(Cl)c(CN[C@@H](CO)c5ccccc5)c4)c3)nn2CCCN2CCSCC2)C1 [Example 563, 2-[3-(4-Chloro-3-{[4-chloro-3-({[(1R)-2-hydroxy-1-phenylethyl]amino}methyl)phenyl]ethynyl}phenyl)-1-(3-thiomorpholin-4-ylpropyl)-1,4,6,7-tetrahydro-5H-pyrazolo[4,3-c]pyridin-5-yl]-2-oxoacetamide] | 30

same assay, conditions: CatS IC50

Row | SMILES | IC50 [nM]
18 | CS(=O)(=O)N1CCc2c(c(-c3ccc(Cl)c(C#Cc4ccc5cc[nH]c5n4)c3)nn2CCCN2CCOCC2)C1 [Example 482, 3-[4-Chloro-3-(1H-pyrrolo[2,3-b]pyridin-6-ylethynyl)phenyl]-5-(methylsulfonyl)-1-(3-morpholin-4-ylpropyl)-4,5,6,7-tetrahydro-1H-pyrazolo[4,3-c]pyridine] | 180
19 | CS(=O)(=O)NC1CCN(CCCn2nc(-c3ccc(Cl)c(C#Cc4ccc(CNCc5ccc(Cl)cc5)cc4)c3)c3c2CCN(S(C)(=O)=O)C3)CC1 [Example 359, N-(1-{3-[3-(4-Chloro-3-{[4-({[(4-chlorophenyl)methyl]amino}methyl)phenyl]ethynyl}phenyl)-5-(methylsulfonyl)-4,5,6,7-tetrahydro-1H-pyrazolo[4,3-c]pyridin-1-yl]propyl}piperidin-4-yl)methanesulfonamide] | 80
20 | C=CCNCc1ccc(C#Cc2cc(-c3nn(CCCN4CCOCC4)c4c3CN(S(C)(=O)=O)CC4)ccc2Cl)cc1 [Example 349, N-{[4-({2-Chloro-5-[5-(methylsulfonyl)-1-(3-morpholin-4-ylpropyl)-4,5,6,7-tetrahydro-1H-pyrazolo[4,3-c]pyridin-3-yl]phenyl}ethynyl)phenyl]methyl}prop-2-en-1-amine] | 550
21 | C[C@H]1COCCN1CCCn1nc(-c2ccc(Cl)c(C#Cc3ccc(Cl)c(C(=O)NC[C@@H]4CCNC4)c3)c2)c2c1CCN(C(=O)C(N)=O)C2 [Example 586, 5-{[5-(5-[Amino(oxo)acetyl]-1-{3-[(3S)-3-methylmorpholin-4-yl]propyl}-4,5,6,7-tetrahydro-1H-pyrazolo[4,3-c]pyridin-3-yl)-2-chlorophenyl]ethynyl}-2-chloro-N-[(3R)-pyrrolidin-3-ylmethyl]benzamide] | 20
22 | C[C@H]1COCCN1CCCn1nc(-c2ccc(Cl)c(C#Cc3ccc(Cl)c(C(=O)NCCCNC(=O)OC(C)(C)C)c3)c2)c2c1CCN(C(=O)C(N)=O)C2 [Example 577, tert-Butyl (3-{[(5-{[5-(5-[amino(oxo)acetyl]-1-{3-[(3S)-3-methylmorpholin-4-yl]propyl}-4,5,6,7-tetrahydro-1H-pyrazolo[4,3-c]pyridin-3-yl)-2-chlorophenyl]ethynyl}-2-chlorophenyl)carbonyl]amino}propyl)carbamate] | 20
23 | CS(=O)(=O)N1CCc2c(c(-c3ccc(Cl)c(C#Cc4ccc(CNCC5CC5)cc4)c3)nn2CCCN2CCOCC2)C1 [Example 341, 1-[4-({2-Chloro-5-[5-(methylsulfonyl)-1-(3-morpholin-4-ylpropyl)-4,5,6,7-tetrahydro-1H-pyrazolo[4,3-c]pyridin-3-yl]phenyl}ethynyl)phenyl]-N-(cyclopropylmethyl)methanamine] | 830
24 | CS(=O)(=O)N1CCc2c(c(-c3ccc(Cl)c(C#Cc4ccc(CNCC(F)(F)F)cc4)c3)nn2CCCN2CCOCC2)C1 [Example 340, N-{[4-({2-Chloro-5-[5-(methylsulfonyl)-1-(3-morpholin-4-ylpropyl)-4,5,6,7-tetrahydro-1H-pyrazolo[4,3-c]pyridin-3-yl]phenyl}ethynyl)phenyl]methyl}-2,2,2-trifluoroethanamine] | 390
